Test results taken from patent US8178497B2, “Method of treating HIV in drug resistant non plasma viral reservoirs with monomeric DAPTA” (Rapid Pharmaceuticals AG, priority 2007, dated 2012).
Read-outs that look alike come from different tables or passages of the source.

Tests used:
[1] = system: CCR5-using HIV-1 strain, 81A; experiment: p24 antigen production in HIV-infected M/M (CCR5-using strain); type: cell-based
Experimental: (§1) Viral replication and production in HIV-infected M/M treated with DAPTA was assessed 14 and 21 days after infection for p24 antigen production.

HIV [2] = settings: doses as high as 10^−7 M; cited from earlier work
[3] = aggregation of peptide in solution; type: physicochemical
From the text: These marginal clinical benefits were inexplicable in the context of the many successful in vitro studies and an explanation was sought. […] Therefore reduction to practice required that the non-obvious formation of multimers must be remedied for considerations of both patient safety and drug efficacy.

HIV-1 = settings: 18 hours postinfection, vs not-treated cells
Experimental: Eighteen hours postinfection, genomic DNA was extracted and two-fold dilution of cell equivalents (range 1×10^6-1.25×10^5) were amplified in an inverse/nested PCR specific for a conserved gag region of the viral genome. Semi-quantitative analyses of HIV-1 DNA in M/M were performed by comparison of DNA amplification products from infected cells, standardized by PCR for β-actin, to standards of amplified U1 DNA copies and cell numbers. The UN-SCAN IT-gel software (Silk Scientific Inc.) was used to determine band densities (FIG. 3A).

HIV [4] = settings: main endpoint of the small trial; cited from earlier work
[5] = system: SK-N-SH cells exposed to R5 HIV-1 strain BaL; experiment: apoptosis of differentiated SK-N-SH cells exposed to HIV-1 BaL, FACS; type: cell-based; settings: for apoptosis, share of SK-N-SH cells: day 5, 60% with HIV-1BaL alone
From the text: Finally, we exposed differentiated SK-N-SH cells to the R5 HIV-1 strain BaL, in the presence or absence of monomeric DAPTA, and assessed neuronal apoptosis. […] To compare the anti-apoptotic effect of monomeric DAPTA with other CCR5-binding molecules, we also tested the CCR5 antagonist TAK-779.

CCR5 [6] = biological target: T1, CCR5 (Homo sapiens, UniProt P51681); experiment: CCR5 expression on SK-N-SH neuronal cells, 2D7 mAb staining; type: cell-based; parameters: CCR5 expression in these differentiated cells is limited and further reduced in the presence of DAPTA; endogenous in cells; host or cells: SK-N-SH (differentiated with retinoic acid)
From the text: To assess CCR5 expression on surface of neuronal cell lines, SK-N-SH were stained with 2D7 mAb in presence or in absence of DAPTA (at different doses) and TAK-779. SK-N-SH line has the potential of differentiating to neural cells in the presence of retinoic acid, and it has been used as a model of primary neurons.

[7] = system: CXCR4-using (X4) strains, HIV-1 IIIB; experiment: p24 antigen production in HIV-infected M/M (CXCR4-using strain); type: cell-based; settings: M/M infected by HIV-1 IIIB; data not shown
Experimental: as §1

HIV [8] = settings: frozen stored plasma samples; p=.037; cited from earlier work
CCR5 [9] = biological target: T1, CCR5; experiment: competition between CCR5-FITC antibody and DAPTA in M/M, flow cytometry; type: cell-based; parameters: endogenous in cells; host or cells: human primary monocyte/macrophages (M/M)
From the text: To confirm that monomeric DAPTA binding is specific for CCR5, a competition experiment between CCR5-FITC antibody and DAPTA in M/M was done. […] Treatment with monomeric DAPTA reduced CCR % expression to 9% with 10^−12 M DAPTA, compared with 35% of mock-treated M/M (FIG. 2) (p≦0.001).

T1 sequence (P51681 whole entry): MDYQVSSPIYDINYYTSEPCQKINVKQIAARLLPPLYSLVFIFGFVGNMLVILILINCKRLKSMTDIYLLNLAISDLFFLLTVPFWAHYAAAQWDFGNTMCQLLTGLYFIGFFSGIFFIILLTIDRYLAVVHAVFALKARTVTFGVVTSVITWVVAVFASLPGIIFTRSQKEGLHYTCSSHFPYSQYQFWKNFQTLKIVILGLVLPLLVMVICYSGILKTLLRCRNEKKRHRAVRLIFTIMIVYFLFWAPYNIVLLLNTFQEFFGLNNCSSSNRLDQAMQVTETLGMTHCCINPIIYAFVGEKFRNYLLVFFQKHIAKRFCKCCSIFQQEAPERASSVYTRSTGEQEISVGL

Molecule | reduction of p24 gag antigen production of control M/M cultures ([1]; HIV-1 81A, doses as low as 10^−14 M, 14 and 21 days after infection) | effective dose lower than described in earlier reports (enhanced in vitro potency) ([1]; monomeric formulation vs earlier reports) | antiviral effects (Sodroski) (HIV [2]) | aggregation in solution [3] | decline of HIV-1 DNA per 2.5×10^5 cells (HIV-1; 10^−7 M) | decline of HIV-1 DNA per 2.5×10^5 cells (HIV-1; 10^−9 M) | plasma viral load (HIV [4]) | apoptosis, share of SK-N-SH cells ([5]; 10^−3M) | apoptosis, share of SK-N-SH cells ([5]; 10^−12M) | inhibition of CCR5 expression (CCR5 [6]; 10^−12M, vs unexposed SK-N-SH) | inhibition of CCR5 expression (CCR5 [6]; 10^−13M, vs unexposed SK-N-SH) | effect on HIV-1 p24 antigen production [7] | reduction in viral load (HIV [8]) | inhibition of CCR5-binding, maximum (CCR5 [9]; 10^−12 M) | CCR5 expression (CCR5+ M/M) (CCR5 [9]; 10^−12 M, mock-treated 35%) | CCR5+ positive M/M (CCR5 [9]; DAPTA treated M/M, mock-treated 35%) | inhibition of CCR5-binding (CCR5 [9]; overall, several DAPTA doses) | inhibition of apoptosis ([5]; 1.8×10^−6 M, vs cells not treated) | inhibition of CCR5 expression (CCR5 [6]; 1.8×10^−6 M)
Dala1-peptide T-amide [DAPTA] | ~80% | 100-100,000 fold | failed to find antiviral effects | quickly formed aggreagates in solution | 64% | 70% | failing to reduce plasma viral load | 28% | 26% | 72% | 68.5% | no effect | 0.54 log 10 | 73% | 9% | 20% | about 43% | – | –
Cc1ccc(-c2ccc3c(c2)C=C(C(=O)Nc2ccc(C[N+](C)(C)C4CCOCC4)cc2)CCC3)cc1.[Cl-] [TAK-779, reference compound] | – | – | – | – | – | – | – | – | – | – | – | – | – | – | – | – | – | 30% | about 61%
